One data set relates to VEGF. Nature of the data set: VEGF production in CNV model (western blot of choroid-retinal pigment epithelium). Type of data set: in vivo, mice. Conditions: 0.3 mg/kg orally once daily, 5 days after laser irradiation. How it is done: A CNV model generated by the same method as in Example 1 was orally administered Compound 1 suspended in a vehicle (0.5% MC solution) at a dose of 0.3 mg/kg (in terms of free form) once daily from the day before laser irradiation to the day of sampling. Controls were an untreated group (normal group) and a group administered only the vehicle (vehicle group). Experiments were performed using 6 mice in the Compound 1 administration group, 8 mice in the normal group, and 7 mice in the vehicle group. After 5 days from the laser irradiation, the mice were euthanized by cervical dislocation, and the eyeball was extirpated. Choroid-retinal pigment epithelium was isolated from the eyeball, and the expression amount of VEGF protein was measured by a western blot method using an anti-VEGF antibody (manufactured by Merck Millipore). In addition, the results of calculation of the expression amount of VEGF relative to that of β-actin with reference to the normal group are shown in FIG. 5(b).
A general note: A western blot detects proteins with antibodies after separation by electrophoresis.

A further data set can be described thus: Body weight in CNV model. Type of data set: in vivo, mice. Conditions: oral once daily dosing, vs vehicle group. From the text: A case in which FA was unable to be performed owing to cloudiness caused by a flaw in the eye produced before the FA evaluation and a case in which CNV was connected at the time of the evaluation of the area of CNV were excluded from analysis, and the above-mentioned results were each calculated as a mean of 11 or 12 mice in each group. […] A case in which FA was unable to be performed owing to cloudiness caused by a flaw in the eye produced before the FA evaluation and a case in which CNV was connected at the time of the evaluation of the area of CNV were excluded from analysis, and the above-mentioned results were each calculated as a mean of 12 mice in each group.

`C[C@H](Oc1ccc(-c2nc(-c3ccc4[nH]cnc4c3)no2)cc1C(F)(F)F)C(F)(F)F.Cl` [Compound 1, 5-{5-[3-(trifluoromethyl)-4-{[(2S)-1,1,1-trifluoropropan-2-yl]oxy}phenyl]-1,2,4-oxadiazol-3-yl}-1H-benzimidazole monohydrochloride]: in the data set with VEGF, the “expression of VEGF relative to β-actin, as compared to the vehicle group” value is recorded as “significantly reduced the expression of VEGF”. The “change in body weight between the groups before sampling” value in the data set “Body weight in CNV model” is “a significant change in body weight between the groups before sampling was not found”.
